Biological target: cAMP and cAMP-inhibited cGMP 3',5'-cyclic phosphodiesterase 10A (Homo sapiens, UniProt Q9Y233)
Assay: Fluorescence Polarization Assay: The activity of the compounds in accordance with the present invention as PDE10 inhibitors may be readily determined without undue experimentation using a fluorescence polarization (FP) methodology that is well known in the art (Huang, W., et al., J. Biomol Screen, 2002, 7: 215). […] In a typical experiment the PDE10 inhibitory activity of the compounds of the present invention was determined in accordance with the following experimental method. PDE10A2 was amplified from human fetal brain cDNA (Clontech, Mountain View, Calif.) using a forward primer corresponding to nucleotides 56-77 of human PDE10A2 (Accession No. AF127480, Genbank Identifier 4894716), containing a Kozak consensus sequence, and a reverse primer corresponding to nucleotides 2406-2413 of human PDE10A2.

cAMP and cAMP-inhibited cGMP 3',5'-cyclic phosphodiesterase 10A, sequence (Q9Y233 whole entry): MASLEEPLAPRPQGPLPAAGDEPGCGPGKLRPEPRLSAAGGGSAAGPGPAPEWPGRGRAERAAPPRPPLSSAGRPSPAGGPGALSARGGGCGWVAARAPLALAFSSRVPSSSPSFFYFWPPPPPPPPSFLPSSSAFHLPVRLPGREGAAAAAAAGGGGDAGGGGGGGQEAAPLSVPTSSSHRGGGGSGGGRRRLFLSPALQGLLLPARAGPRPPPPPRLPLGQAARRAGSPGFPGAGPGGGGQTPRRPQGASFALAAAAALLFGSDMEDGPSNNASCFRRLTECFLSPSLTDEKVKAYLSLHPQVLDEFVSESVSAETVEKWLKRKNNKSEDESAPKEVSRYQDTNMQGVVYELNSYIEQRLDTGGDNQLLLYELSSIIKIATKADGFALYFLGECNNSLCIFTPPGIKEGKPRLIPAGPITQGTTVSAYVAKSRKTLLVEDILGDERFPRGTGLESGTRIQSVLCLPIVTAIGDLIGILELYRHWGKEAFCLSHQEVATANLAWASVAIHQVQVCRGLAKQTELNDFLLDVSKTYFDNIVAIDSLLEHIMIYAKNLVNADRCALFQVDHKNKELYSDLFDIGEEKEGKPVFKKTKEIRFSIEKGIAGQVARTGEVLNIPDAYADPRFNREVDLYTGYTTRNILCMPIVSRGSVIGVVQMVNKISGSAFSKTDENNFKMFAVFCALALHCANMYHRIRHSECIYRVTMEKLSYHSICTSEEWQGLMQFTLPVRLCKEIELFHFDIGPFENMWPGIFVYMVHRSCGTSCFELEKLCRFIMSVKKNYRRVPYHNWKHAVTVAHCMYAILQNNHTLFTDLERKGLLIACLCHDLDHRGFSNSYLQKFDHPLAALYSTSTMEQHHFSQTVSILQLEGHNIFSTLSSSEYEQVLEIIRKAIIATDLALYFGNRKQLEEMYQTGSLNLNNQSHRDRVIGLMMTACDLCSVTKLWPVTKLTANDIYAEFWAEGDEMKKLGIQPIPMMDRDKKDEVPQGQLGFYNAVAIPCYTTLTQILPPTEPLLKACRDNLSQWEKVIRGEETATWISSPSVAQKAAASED

Cc1c(Cl)nc(OC[C@@H]2C[C@H]2c2ccc3ncccc3n2)nc1NCc1cnn(C)c1
Ki: 19 pM

Cc1nc(C)c(CNc2nc(OC[C@@H]3C[C@H]3c3ccc4ccccc4n3)nc(Cl)c2C)s1
Ki: 0.6 pM

COc1nc(OC[C@H]2C[C@@H]2c2ccc3ncccc3n2)nc(NCc2cnn(C)c2)c1C
Ki: 170 pM
